Test: Photodegradation of UV absorber combinations, plate-test (recovery after UV irradiation)
Assay type: physicochemical
Details: 0-50 MED UV; for Photostabilization of components (e) and (f) after irradiation (summary of Table 5): in presence of piperazine bi-aminobenzophenone
Experimental: For the determination of photodegradation the so-called “plate-test” is employed: • 2 μl/cm^2 of the formulations are spread on quartz plates (sand-blasted surface of 2.8 cm^2), and rinsed off the plates after 0, 5, 10, 20, and 50 MED of UV irradiation using an Atlas CPS+ solar simulator.
The substances tagged with an asterix (*) are those the recovery percentages refer to. The percentage of component (a) refers to the active.
The experimental error in terms of the standard deviation is in the range of ±3%.

| SMILES | Photostabilization of components (e) and (f) after irradiation (summary of Table 5) | Photostabilization of component (b) after irradiation (summary of Table 4) (combination with piperazine bi-aminobenzophenone, bis-ethylhexyloxyphenol methoxyphenyl triazine added) | Photostabilization of component (b) after irradiation (summary of Table 3) (combination with piperazine bi-aminobenzophenone, octocrylene added) |
| --- | --- | --- | --- |
| CCCCC(CC)COC(=O)c1ccc(Nc2nc(Nc3ccc(C(=O)OCC(CC)CCCC)cc3)nc(Nc3ccc(C(=O)OCC(CC)CCCC)cc3)n2)cc1 (stereo not shown) [ethylhexyl triazone, Ethylhexyl triazone] | photostabilized in the presence of piperazine bi-aminobenzophenone |  |  |
| CCCCC(CC)COC(=O)c1ccc(Nc2nc(Nc3ccc(C(=O)NC(C)(C)C)cc3)nc(Nc3ccc(C(=O)OCC(CC)CCCC)cc3)n2)cc1 (stereo not shown) [di-octyl butamido triazone, Benzoic acid, 4,4′-[[6-[[4-[[(1,1-dimethylethyl)amino]carbonyl]-phenyl]amino]1,3,5-triazine-2,4-diyl]diimino]bis-, bis(2-ethyl-hexyl)ester] | photostabilized in the presence of piperazine bi-aminobenzophenone |  |  |
| CCCCC(CC)COC(=O)C=Cc1ccc(OC)cc1 (stereo not shown) [ethylhexyl methoxycinnamate, 2-ethylhexyl 4-methoxycinnamate] |  | can be stabilized by addition of bis-ethylhexyloxyphenol methoxyphenyl triazine | can be stabilized by addition of octocrylene |
